From ChEMBL document CHEMBL1201862, “PubChem BioAssay data set” (2004)
The source made the active and inactive calls.

Tests used:
[1] = target: T1, Tyrosine-protein phosphatase non-receptor type 7 (Homo sapiens, UniProt P35236); assay type: functional
T1 sequence (P35236 whole entry): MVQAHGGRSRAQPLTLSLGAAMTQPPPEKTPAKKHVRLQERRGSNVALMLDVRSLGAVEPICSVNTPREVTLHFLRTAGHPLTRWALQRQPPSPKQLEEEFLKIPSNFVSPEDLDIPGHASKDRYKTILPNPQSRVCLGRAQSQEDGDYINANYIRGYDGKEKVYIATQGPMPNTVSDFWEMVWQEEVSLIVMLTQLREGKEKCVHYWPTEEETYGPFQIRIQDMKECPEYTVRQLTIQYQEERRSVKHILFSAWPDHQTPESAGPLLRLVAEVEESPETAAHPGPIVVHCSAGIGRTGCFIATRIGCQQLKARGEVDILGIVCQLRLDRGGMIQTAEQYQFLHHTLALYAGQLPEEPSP

[2] = target: T2, Tyrosine-protein phosphatase non-receptor type 22 (Homo sapiens, UniProt Q9Y2R2); assay type: functional
T2 sequence (Q9Y2R2 whole entry): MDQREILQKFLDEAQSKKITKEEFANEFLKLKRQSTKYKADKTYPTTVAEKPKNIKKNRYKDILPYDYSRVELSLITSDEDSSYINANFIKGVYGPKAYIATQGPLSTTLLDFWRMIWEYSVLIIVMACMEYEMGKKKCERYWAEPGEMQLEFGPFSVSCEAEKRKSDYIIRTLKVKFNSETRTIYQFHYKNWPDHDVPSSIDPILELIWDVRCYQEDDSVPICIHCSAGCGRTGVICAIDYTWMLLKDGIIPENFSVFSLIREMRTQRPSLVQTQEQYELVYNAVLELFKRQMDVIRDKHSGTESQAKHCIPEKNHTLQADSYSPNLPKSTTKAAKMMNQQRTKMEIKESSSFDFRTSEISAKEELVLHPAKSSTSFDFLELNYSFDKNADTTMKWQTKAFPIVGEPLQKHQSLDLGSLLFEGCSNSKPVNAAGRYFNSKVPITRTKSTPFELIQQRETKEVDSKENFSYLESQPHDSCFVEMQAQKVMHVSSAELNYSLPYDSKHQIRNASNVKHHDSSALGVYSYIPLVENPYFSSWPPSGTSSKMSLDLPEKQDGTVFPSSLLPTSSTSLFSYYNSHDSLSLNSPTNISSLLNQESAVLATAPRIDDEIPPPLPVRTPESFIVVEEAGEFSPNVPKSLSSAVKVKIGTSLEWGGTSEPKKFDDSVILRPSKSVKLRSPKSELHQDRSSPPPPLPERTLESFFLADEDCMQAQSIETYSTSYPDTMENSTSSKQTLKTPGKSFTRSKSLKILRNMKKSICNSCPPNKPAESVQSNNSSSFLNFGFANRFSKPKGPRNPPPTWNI

[3] = target: T2, Tyrosine-protein phosphatase non-receptor type 22; assay type: functional; remark: listed apart in the source
[4] = target: Peroxisome proliferator-activated receptor gamma/Nuclear receptor coactivator 3 (Homo sapiens, UniProt P37231); assay: TR-FRET dose response biochemical High Throughput Screening assay for agonists of the steroid receptor coactivator 3 (SRC-3) recruitment by the peroxisome proliferator-activated receptor gamma (PPAR gamma): non-selective agonists. [Related pubchem assays: 1301 (Confirmation screen.), 1048 (Primary screen.)]; assay type: functional
Nonstructural protein 1 = Nonstructural protein 1 (Influenza A virus, UniProt Q194T2); assay type: functional, Influenza A virus (A/California/07/2009(H1N1))
Sequence of Nonstructural protein 1 (Q194T2 whole entry): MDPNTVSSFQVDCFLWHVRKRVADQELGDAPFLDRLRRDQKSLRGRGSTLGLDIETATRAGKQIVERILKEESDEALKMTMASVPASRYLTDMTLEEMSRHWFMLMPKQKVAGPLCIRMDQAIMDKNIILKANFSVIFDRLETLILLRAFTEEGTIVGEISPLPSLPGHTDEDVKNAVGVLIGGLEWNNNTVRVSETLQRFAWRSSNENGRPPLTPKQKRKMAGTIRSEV

Streptokinase A = target: T3, Streptokinase A (Streptococcus pyogenes serotype M1, UniProt P10520); assay: viability-normalized secreted streptokinase activity reduction – plasminogen activation absorbance, OD405, dose response (AID 1914); assay type: functional, Streptococcus pyogenes M1 GAS;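 also: secreted streptokinase activity via plasminogen activation per viability signal from cell pellet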
T3 sequence (P10520 whole entry): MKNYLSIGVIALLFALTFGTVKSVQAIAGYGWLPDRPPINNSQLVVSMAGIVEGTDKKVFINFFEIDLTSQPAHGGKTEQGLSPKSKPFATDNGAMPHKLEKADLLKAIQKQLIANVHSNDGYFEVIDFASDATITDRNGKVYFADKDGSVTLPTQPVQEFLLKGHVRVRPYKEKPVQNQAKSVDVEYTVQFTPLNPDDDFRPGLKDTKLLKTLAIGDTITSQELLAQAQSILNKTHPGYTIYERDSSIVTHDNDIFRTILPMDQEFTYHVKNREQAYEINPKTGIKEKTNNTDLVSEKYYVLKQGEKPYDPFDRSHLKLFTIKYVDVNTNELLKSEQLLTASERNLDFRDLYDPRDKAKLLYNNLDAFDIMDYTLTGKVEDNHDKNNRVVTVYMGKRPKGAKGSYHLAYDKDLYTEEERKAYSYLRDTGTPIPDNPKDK

[5] = target: Peroxisome proliferator-activated receptor gamma/Nuclear receptor coactivator 2 (Homo sapiens, UniProt P37231); assay: (§1) TR-FRET dose response biochemical High Throughput Screening assay for agonists of the steroid receptor coactivator 2 (SRC-2) recruitment by the peroxisome proliferator-activated receptor gamma (PPAR gamma): non-selective agonists. [Related pubchem assays: 1297, 1032 ]; assay type: functional
Sequence of Peroxisome proliferator-activated receptor gamma/Nuclear receptor coactivator 2 (P37231 whole entry): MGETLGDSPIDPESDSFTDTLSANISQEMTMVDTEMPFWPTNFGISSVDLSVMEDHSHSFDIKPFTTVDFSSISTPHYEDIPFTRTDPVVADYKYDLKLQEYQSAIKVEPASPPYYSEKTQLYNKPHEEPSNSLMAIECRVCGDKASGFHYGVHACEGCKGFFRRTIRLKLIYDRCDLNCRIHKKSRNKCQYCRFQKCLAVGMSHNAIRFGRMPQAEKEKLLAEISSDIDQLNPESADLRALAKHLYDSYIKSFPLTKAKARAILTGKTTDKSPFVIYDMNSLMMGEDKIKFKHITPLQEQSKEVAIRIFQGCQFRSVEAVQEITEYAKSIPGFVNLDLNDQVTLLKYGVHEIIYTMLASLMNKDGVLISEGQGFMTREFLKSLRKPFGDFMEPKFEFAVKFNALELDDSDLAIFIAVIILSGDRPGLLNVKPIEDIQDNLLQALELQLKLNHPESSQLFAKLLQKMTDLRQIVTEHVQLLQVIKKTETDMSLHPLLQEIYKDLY
Sequence of Peroxisome proliferator-activated receptor gamma/Nuclear receptor coactivator 2 (Q15596 whole entry, further chain): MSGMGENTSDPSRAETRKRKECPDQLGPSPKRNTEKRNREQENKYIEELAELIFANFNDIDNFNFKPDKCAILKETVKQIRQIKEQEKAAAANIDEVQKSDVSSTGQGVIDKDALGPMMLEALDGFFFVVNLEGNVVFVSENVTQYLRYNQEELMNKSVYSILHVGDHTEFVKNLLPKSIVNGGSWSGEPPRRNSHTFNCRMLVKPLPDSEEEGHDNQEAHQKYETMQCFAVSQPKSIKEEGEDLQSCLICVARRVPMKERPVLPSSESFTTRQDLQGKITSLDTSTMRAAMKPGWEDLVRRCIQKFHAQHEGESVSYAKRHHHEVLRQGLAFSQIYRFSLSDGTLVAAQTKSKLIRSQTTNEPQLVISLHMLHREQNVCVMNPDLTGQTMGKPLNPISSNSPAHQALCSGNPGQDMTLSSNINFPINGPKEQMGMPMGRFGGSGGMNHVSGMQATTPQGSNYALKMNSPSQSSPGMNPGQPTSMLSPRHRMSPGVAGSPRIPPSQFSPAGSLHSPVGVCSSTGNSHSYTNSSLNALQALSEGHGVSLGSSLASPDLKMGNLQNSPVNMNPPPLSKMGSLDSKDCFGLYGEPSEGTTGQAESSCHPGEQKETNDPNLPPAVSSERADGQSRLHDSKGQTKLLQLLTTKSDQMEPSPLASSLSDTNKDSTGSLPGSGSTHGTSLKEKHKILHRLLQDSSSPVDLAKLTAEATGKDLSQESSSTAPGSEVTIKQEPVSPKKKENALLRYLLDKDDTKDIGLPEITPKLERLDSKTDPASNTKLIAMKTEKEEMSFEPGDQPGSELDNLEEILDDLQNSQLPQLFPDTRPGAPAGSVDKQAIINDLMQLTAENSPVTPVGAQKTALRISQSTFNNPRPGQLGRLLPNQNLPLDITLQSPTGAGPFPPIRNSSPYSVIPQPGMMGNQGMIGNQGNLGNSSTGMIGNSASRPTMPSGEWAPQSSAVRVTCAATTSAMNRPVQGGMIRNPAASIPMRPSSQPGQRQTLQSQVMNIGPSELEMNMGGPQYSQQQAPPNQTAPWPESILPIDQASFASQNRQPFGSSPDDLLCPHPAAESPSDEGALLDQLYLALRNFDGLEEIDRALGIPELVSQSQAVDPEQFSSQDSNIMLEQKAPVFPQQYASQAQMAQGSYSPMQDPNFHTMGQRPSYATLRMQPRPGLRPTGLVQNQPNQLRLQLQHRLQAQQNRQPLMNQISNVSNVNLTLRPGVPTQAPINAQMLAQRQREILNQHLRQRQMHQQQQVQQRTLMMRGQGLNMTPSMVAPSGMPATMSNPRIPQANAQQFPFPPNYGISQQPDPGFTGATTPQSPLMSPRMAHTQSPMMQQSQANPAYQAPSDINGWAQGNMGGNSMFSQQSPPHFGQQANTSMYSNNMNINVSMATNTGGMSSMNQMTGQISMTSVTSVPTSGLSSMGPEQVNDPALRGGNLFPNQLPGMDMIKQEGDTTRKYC

[6] = tested on: Streptococcus sp. 'group A'; assay: Streptococcus pyogenes SK(-)GAS viability under kanamycin – luminescence, BacTiterGlo, confirmation, counter-screen for streptokinase expression inhibitor project, dose response (AID 1900); assay type: functional, organism-based
[7] = target: Peroxisome proliferator-activated receptor gamma/Nuclear receptor coactivator 1 (Homo sapiens, UniProt P37231); assay: as §1, with “1 (SRC-1)” for “2 (SRC-2)”, “assays (depositor defined):AID1300, AID1808, AID504735, AID631]” for “assays: 1297, 1032 ]”; assay type: protein assay
Sequence of Peroxisome proliferator-activated receptor gamma/Nuclear receptor coactivator 1 (P37231 whole entry): as the sequence (P37231 whole entry) above
Sequence of Peroxisome proliferator-activated receptor gamma/Nuclear receptor coactivator 1 (Q15788 whole entry, further chain): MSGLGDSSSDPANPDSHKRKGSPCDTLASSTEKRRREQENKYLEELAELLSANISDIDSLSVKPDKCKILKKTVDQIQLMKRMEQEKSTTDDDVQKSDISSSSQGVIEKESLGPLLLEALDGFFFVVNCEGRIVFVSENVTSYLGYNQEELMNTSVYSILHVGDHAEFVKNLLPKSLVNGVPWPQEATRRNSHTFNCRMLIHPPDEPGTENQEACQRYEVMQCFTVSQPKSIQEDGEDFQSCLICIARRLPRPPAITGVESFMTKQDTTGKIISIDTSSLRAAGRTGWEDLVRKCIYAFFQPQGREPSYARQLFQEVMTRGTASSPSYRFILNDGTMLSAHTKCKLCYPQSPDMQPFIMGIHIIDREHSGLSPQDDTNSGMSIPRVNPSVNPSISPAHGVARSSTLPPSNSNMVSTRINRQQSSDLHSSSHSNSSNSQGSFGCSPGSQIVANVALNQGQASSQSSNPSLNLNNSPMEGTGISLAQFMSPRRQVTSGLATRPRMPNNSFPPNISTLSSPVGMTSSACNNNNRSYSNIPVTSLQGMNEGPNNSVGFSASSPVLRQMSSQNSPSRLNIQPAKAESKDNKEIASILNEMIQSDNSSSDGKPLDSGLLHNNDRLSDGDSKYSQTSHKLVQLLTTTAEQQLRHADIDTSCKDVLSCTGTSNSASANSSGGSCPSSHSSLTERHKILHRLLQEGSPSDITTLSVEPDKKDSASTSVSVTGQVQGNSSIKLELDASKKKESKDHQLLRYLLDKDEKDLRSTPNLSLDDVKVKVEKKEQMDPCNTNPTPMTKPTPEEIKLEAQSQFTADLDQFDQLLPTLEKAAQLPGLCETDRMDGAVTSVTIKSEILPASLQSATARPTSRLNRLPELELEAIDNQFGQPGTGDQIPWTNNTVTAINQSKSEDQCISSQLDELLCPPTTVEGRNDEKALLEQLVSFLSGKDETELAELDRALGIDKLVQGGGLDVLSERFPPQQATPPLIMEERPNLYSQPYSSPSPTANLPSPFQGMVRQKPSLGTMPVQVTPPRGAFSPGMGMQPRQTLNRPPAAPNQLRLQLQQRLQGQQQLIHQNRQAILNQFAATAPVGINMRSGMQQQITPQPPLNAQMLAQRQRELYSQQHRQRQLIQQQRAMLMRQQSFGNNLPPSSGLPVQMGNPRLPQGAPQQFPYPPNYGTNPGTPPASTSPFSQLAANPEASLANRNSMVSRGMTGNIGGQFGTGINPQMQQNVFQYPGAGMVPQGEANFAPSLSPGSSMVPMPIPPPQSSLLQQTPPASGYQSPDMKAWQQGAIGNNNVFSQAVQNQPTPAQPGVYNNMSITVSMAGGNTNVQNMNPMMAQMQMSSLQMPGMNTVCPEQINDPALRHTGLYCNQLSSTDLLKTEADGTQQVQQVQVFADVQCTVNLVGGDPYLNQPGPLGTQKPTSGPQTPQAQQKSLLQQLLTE

Streptococcus = assay: GAS UMAA2166 growth inhibition – luminescence, BacTiterGlo, counter-screen for streptokinase expression inhibitor project, dose response (AID 1915); assay type: functional, organism-based;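 also: potency for reduction of bacterial viability or growth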

O=C(NNC(=O)c1cccc(Br)c1)C(=O)N1CCCCC1
IC50 [1]: > 79.4 µM (inactive) | IC50 [2]: > 79.4 µM (inactive) | IC50 [3]: > 79.4 µM (inactive)

CC12CCC(C(=O)N(CSC(=S)N/N=C\c3ccccc3O)C1=O)C2(C)C (stereo unspecified)
EC50 [4]: 34.9 µM (not active) | IC50 (Nonstructural protein 1): 2.09 µM (active) | EC50 (Streptokinase A): > 150 µM (not active) | EC50 [5]: 7.31 µM (active) | EC50 [6]: 2.43 µM (active) | EC50 [7]: 7.15 µM (active) | EC50 (Streptococcus): 5.29 µM (active)

CCOC(=O)C(NC(=O)CCl)(Nc1ccc(C(O)(C(=O)OCC)C(F)(F)F)cc1)C(F)(F)F (stereo unspecified)
IC50 [1]: > 79.4 µM (inactive) | IC50 [2]: > 79.4 µM (inactive) | IC50 [3]: > 79.4 µM (inactive)

CCCCC(C(=O)OCC)C(N)Cc1ccc(F)cc1 (stereo unspecified)
IC50 [1]: > 79.4 µM (inactive) | IC50 [2]: > 79.4 µM (inactive) | IC50 [3]: > 79.4 µM (inactive)
